Assay results: patent US20020123456A1, “Methods of identifying agents affecting atrophy and hypertrophy” (priority 2001, published 2002)
Entries after “also recorded” stand apart in the source; their conditions may differ.

Assays:
C2C12 myotubes = assay: C2C12 myotube hypertrophy (myotube diameter); assay type: cell-based; conditions: LY294002 10 μM; for IGF-1-induced myotube hypertrophy: D2 myotubes, IGF-1 10 ng ml-1 plus CsA 5 μM, rapamycin 2 ng ml-1, PD98059 or Ara-C 10 μM; for myotube size / hypertrophy, agent alone: D2 myotubes treated at day 2 after fusion, analysed day 4, IGF-1 10 ng ml-1, CsA 5 μM, Ca-I 1 μM
Protocol: FIG. 9. […] Myotubes were treated at day 2 after fusion with the PI(3)K inhibitor LY294002 (LY; 10 μM), the mTOR inhibitor rapamycin (RAP, 2 ng ml-1), IGF-1 (10 ng ml-1) and with a combination of IGF-1 and each inhibitor, and analyzed for morphological effects at day 4. […] C2C12 myotubes were treated at day 2 after induction of differentiation with IGF-1 (10 ng ml-1) or a combination of Ara-C (10 μM) and IGF-1 (10 ng ml-1), and analysed the next day. Untreated myotubes are shown (CON). […] Quantification of myotube diameters is shown. The average number of nuclei per myotube is presented for each condition in the bottom row.
To distinguish between effects on myoblast differentiation and those on the trophic state of existing myofibres, we exploited the C2C12 myoblast differentiation system. C2C12 myoblasts proliferate until they reach confluence; then, in serum-poor medium, the myoblasts fuse into multi-nucleated myotubes. Differentiated myotubes are predominant by 2 days after fusion (D2 myotubes) and survive for another 3 days. […] IGF-1-induced myotube hypertrophy, as measured by an increase in diameter and an increase in total protein, is normally accompanied by an increase in nuclei within the myofibres.
To obtain more direct evidence, we next used the pharmacological inhibitors of the calcineurin and PI(3)K/Akt pathways in assays of IGF-1-induced myotube hypertrophy. Further, we introduced gene-expression vectors into the myotubes that induced the expression of either activators or dominant-negative blockers of these pathways.
C2C12 myoblasts were cultured and transfected as described (Glass, D. J. et al. Cold Spring Harb. Symp. Quant. Biol. 57, 53-62 (1992)). Flow cytometry and cell sorting were performed on a Cytomation MoFlo (Fort Collins, Colorado) high-speed cell sorter (FACS) (Rommel, C. et al. Science 286, 1738-1741 (1999)). Myoblasts were fused into myotubes at confluence, by shifting the medium to DMEM+2% horse serum. Myotube diameter was quantified as follows: 10 fields were chosen randomly, and approximately 10 myotubes were measured per field. The average diameter per myotube was calculated as the mean of ten measurements taken along the length of the myotube. For the constitutively active Akt, kinaseinactive Akt, wild-type Akt, wild-type SHIP2, dominant-negative SHIP2, constitutively active p70S6K and dominant-negative GSK3β constructs, transfected myotubes were determined by the co-expression of enhanced green fluorescent protein (EGFP; see below for construct details); thus, only transfected myotubes were assessed for hypertrophy. For the tetracycline-inducible calcineurin, myotubes expressing calcineurin were identified by EGFP expression, and comparisons were made between EGFP-positive and EGFP-negative myotubes. […]

PI(3)K/Akt/mTOR pathway = assay: PI(3)K/Akt/mTOR and ERK signalling in C2C12 differentiated myotubes (immunoblot, kinase assay); assay type: cell-based; conditions: for phosphorylation of downstream targets of the PI(3)K/Akt/mTOR pathway (Akt, p70S6K, GSK3, PHAS-1/4E-BP1): IGF-1 10 ng ml-1 or Ca-I 1.0 μM, 15 min
Excerpt: (§1) As a first step towards examining the roles of the calcineurin/NFAT and PI(3)K/Akt pathways during IGF-induced myotube hypertrophy, we added IGF-1 to differentiated myotubes and determined whether these pathways were activated. Calcineurin is a protein phosphatase that is activated by increases in intracellular calcium levels, which in turn dephosphorylates the NFAT transcription factors; this dephosphorylation results in the translocation of NFATs to the nucleus and subsequent gene transcription. NFAT dephosphorylation and nuclear translocation are therefore markers of calcineurin activation (FIG. 7, right). For markers of activation of the PI(3)K/Akt pathway, the phosphorylation of Akt itself or of downstream targets such as p70S6 kinase (p70S6K), PHAS-1/4E-BP1 or GSK3 were used (FIG. 7).
(§2) Protein analysis of total cell lysates was conducted as described8. The antibodies used were anti-phospho-Erk1/2 (Thr 202/Tyr 204; NEB); anti-phospho-Akt (Ser 473; NEB); anti-phospho- GSK3 (Ser 9/21; NEB); anti-phospho-p70S6K (Thr 389; NEB); anti-phospho-PHAS-1/4E-BP1 (Thr 65; NEB); anti-Erk1/2 (UBI), anti-Akt (NEB), anti-p70S6K (C-18; Santa Cruz), anti-PHAS-1/4EBP1 (Zymed) and anti-NFAT-C1 (7A6; Santa Cruz).
(§3) Immunoprecipitations and immunoblotting were performed as described. Proteins were detected with the chemiluminescence detection system Renaissance; NEN). To measure the enzymatic activity of p70S6K an immunocomplex kinase assay was performed as described (Azpiazu, I., Saltiel, A. R., DePaoli-Roach, A. A. & Lawrence, J. C. J. Biol. Chem. 271, 5033-5039 (1996)).

[1] = Rapamycin given to control (surgically untreated) adult animals; assay type: in vivo, rat; conditions: rapamycin for 14 days, data not shown
Excerpt: The above findings indicate that the Akt pathway and its downstream targets are activated during muscle hypertrophy in vivo. To begin to determine the role of these activations, we used treatment in vivo with rapamycin, a quite specific inhibitor of one important Akt target, mTOR. Rapamycin, a selective blocker of mTOR, blocked hypertrophy in all models without causing atrophy in control muscles Rapamycin binds to its intracellular receptor, forming a complex that then binds to and inhibits mTOR activity (Schmeizie, T. & Hall, M. N. Cell 103, 253-262 (2000).). […] Treatment with rapamycin produced no non-specific effects; that is, there was no effect on body weight or the baseline weight of non-overloaded hindlimb muscles in these animals. Further, rapamycin given to control (surgically untreated) adult animals for 14 days had no effect on body weight or muscle weight (data not shown). In addition to the above results from rats, similar results were obtained when this hypertrophy model was performed in mice (data not shown).

rat plantaris muscle = assay: Compensatory hypertrophy of the plantaris after surgical overload; assay type: in vivo
Protocol: Female Sprague-Dawley rats (250-275 g) were anaesthetized with ketamine/xylazine (50/10 mg kg-1, intraperitoneally); with the use of aseptic surgical techniques the soleus, medial gastrocnemius and lateral gastrocnemius muscles were removed bilaterally, producing a functional overload on the plantaris muscles. In some instances, plasmid DNA (100 μl) was injected into the muscle immediately after the procedure. The hindlimbs of adult female SD rats (225-250 g) were unloaded by suspending their tails with a tail-traction bandage as described29. At the appropriate times, rats were killed and hindlimb muscles were removed, weighed and frozen in isopentane cooled with liquid nitrogen. Weight-matched surgically untreated rats served as controls.
Transfection in vivo. Constructs used encoded the following: (1) myristoylated, c.a. […]
Muscle fibre size was obtained from digitally imaged serial cross-sections of cryostat-sectioned muscle. Individual muscle fibres were outlined and cross-sectional area was determined with a computerassisted image analysis system (MetaMorph™; Universal Imaging Corporation). All data are expressed as means ±s.e.m. […]

calcineurin/NFAT-C1 = assay: NFAT-C1 phosphorylation and translocation in C2C12 differentiated myotubes (immunoblot); assay type: cell-based; conditions: for NFAT-C1 phosphorylation state and nuclear translocation: IGF-1 10 ng ml-1 or Ca-I 1.0 μM, 15 min
Excerpt: as §1, §2, §3

Molecule	IGF-1-induced myotube hypertrophy (C2C12 myotubes)	myotube size / hypertrophy, agent alone (C2C12 myotubes)	NFAT-C1 phosphorylation state and nuclear translocation (calcineurin/NFAT-C1)	phosphorylation of downstream targets of the PI(3)K/Akt/mTOR pathway (Akt, p70S6K, GSK3, PHAS-1/4E-BP1) (PI(3)K/Akt/mTOR pathway)	also measured
COc1cccc(-c2cc(=O)c3ccccc3o2)c1N [PD98059]	did not block phenotypic hypertrophy	–	–	–	IGF-1-induced Akt / PI(3)K/Akt pathway activation (PI(3)K/Akt/mTOR pathway; IGF-1 10 ng ml-1 15 min, CsA 5 μM, LY294002 10 μM, rapamycin 2 ng ml-1, PD98059): without affecting steps in the PI(3)K/Akt/mTOR pathway; IGF-1-induced ERK activation (PI(3)K/Akt/mTOR pathway; IGF-1 10 ng ml-1 15 min, LY294002 10 μM, PD98059 10 μM): did indeed block ERK activation
cytosine-β-D-arabinofuranoside [Ara-C]	myotube diameter and total protein still increase; also recorded: does not inhibit IGF-1-mediated hypertrophy	–	–	–	–
CO[C@H]1C[C@@H]2CC[C@@H](C)[C@@](O)(O2)C(=O)C(=O)N2CCCC[C@H]2C(=O)O[C@H]([C@H](C)C[C@@H]2CC[C@@H](O)[C@H](OC)C2)CC(=O)[C@H](C)/C=C(\C)[C@@H](O)[C@@H](OC)C(=O)[C@H](C)C[C@H](C)/C=C/C=C/C=C/1C [rapamycin]	–	–	–	–	body weight or muscle weight [1]: had no effect; blockage of hypertrophy (rat plantaris muscle; adaptive hypertrophy in adult animals, rapamycin): 95%; body weight or baseline weight of non-overloaded hindlimb muscles (rat plantaris muscle; overloaded rats treated with rapamycin 1.5 mg kg-1 i.p. daily): no effect
IGF-1	–	resulting in hypertrophy	hyperphosphorylation of NFAT	induced the phosphorylation	calcium-ionophore-induced dephosphorylation and translocation of NFAT-C1 (calcineurin/NFAT-C1; Ca-I 1.0 μM, CsA 5 μM before stimulation or IGF-1 10 ng ml-1 simultaneously): blunted
CNc1ccc2oc(C[C@H]3O[C@@]4(CC[C@H]3C)O[C@H]([C@H](C)C(=O)c3ccc[nH]3)[C@H](C)C[C@H]4C)nc2c1C(=O)O [calcium ionophore, A23187]	–	thinner myotubes	dephosphorylation-induced downshift in NFAT	none could be induced	phosphorylation of downstream targets of the PI(3)K/Akt/mTOR pathway (Akt, p70S6K, GSK3, PHAS-1/4E-BP1) (PI(3)K/Akt/mTOR pathway; listed as Ca-I): had no effect on these kinases
